From paper PMC11195995, “A homogeneous time-resolved fluorescence screen to identify SIRT2 deacetylase and defatty-acylase inhibitors” (PLOS ONE, 2024)
“Also recorded” adds a separate entry of the source. Read-outs that look alike come from different tables or passages of the source.

How the values were obtained:
[1] = system: acetylated alpha-tubulin in A549 cells; assay: Immunofluorescence staining of acetylated alpha-tubulin in A549 cells; type: cell-based, human; details: 100 μM, 6 hours
Method: 100,000 A549 or A549 SIRT2-KO cells were seeded on a coverslip that was placed in the well of 6-well plate, and the cells were grown overnight in full DMEM. […] The cells were then washed three times with PBS, fixed with 4% paraformaldehyde for 10 min, then washed again three times with PBS. Cells were incubated with 0.2% Triton X-100 for 15 minutes on a shaker followed by three more PBS washes. The cells were then blocked with 2% BSA in PBS for 1 hour at room temperature. […] Slides were imaged using a Keyence BZ-X710 fluorescence microscope with the following filter settings: DAPI, excitation/emission was 300–400 nm/438-484 nm; Alexa Fluor 488, excitation/emission was 448 nm/500-550 nm. All images were obtained under identical conditions, and fluorescence intensities were quantified using Fiji/ImageJ without any manipulation to the images. The fluorescence intensity from at least six cells per coverslip were randomly selected and measured targeting the cytosol (for measuring acetylated alpha-tubulin levels via Alexa Fluor 488) or the nucleus (for measuring nuclear DNA staining via DAPI). Relative fluorescence intensity was calculated as the ratio of Alexa Fluor 488/DAPI intensities. […]

SIRT2 [2] = molecular target: T1, SIRT2 (Homo sapiens, UniProt Q8IXJ6); assay: SIRT2 binding competition assay using Cy3-myristoyl-H4K16 peptide
T1 sequence (Q8IXJ6 34-356): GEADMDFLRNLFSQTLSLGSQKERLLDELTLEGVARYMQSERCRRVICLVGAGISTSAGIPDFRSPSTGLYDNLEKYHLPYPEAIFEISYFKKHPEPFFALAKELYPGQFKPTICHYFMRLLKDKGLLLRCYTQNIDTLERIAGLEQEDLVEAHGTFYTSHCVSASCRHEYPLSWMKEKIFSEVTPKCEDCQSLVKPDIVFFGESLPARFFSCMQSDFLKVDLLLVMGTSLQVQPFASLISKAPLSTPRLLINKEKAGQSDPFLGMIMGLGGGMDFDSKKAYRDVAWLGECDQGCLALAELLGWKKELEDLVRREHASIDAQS
Method: Competition assays where Cy3-myristoyl-H4K16 peptide was displaced from SIRT2 by 1 were performed as previously described. Assays were performed in PBS with 1 mM DTT at 23°C in a quartz microcuvette (160 μl assay volume). Briefly, the fluorescence intensity of 50 nM Cy3-myristoyl-H4K16 peptide was measured in the presence of 2.5 μM SIRT2 and increasing amounts of 1 using excitation/emission wavelengths of 535 nm/560 nm. The final DMSO concentration in each measurement was 0.6%. As previously described, displacement of Cy3-myristoyl-H4K16 peptide from SIRT2 by a competitive ligand results in a reduction of its fluorescence.
(§1) The data from both competition assays show a reduction in probe fluorescence at increasing concentrations of competitor ligands. […] We determined and report absolute IC50 values from the curves which reflect ligand concentrations that reduce the fluorescence by 50% compared to control (no ligand) samples.

SIRT2 [3] = molecular target: T1, SIRT2; assay: SIRT2 deacetylase activity assay (MALDI-MS, acetyl-H4K16 peptide); type: biochemical
Method: (§2) The enzymatic activity of SIRT2 was measured using a MALDI-MS—based protocol reported previously. Reactions were performed at 37°C for 2.5 min in PBS containing 1 mM DTT and 1 mM of NAD^+. Acylated H4K16 peptides were used as the substrates at the following concentrations: acetyl-H4K16, 4 μM; decanoyl-H4K16, 0.2 μM; dodecanoyl-H4K16, 0.5 μM; myristoyl-H4K16, 0.5 μM. These concentrations correspond to the enzyme’s Km for each substrate under saturating NAD^+ conditions. The enzyme concentration in each reaction was chosen such that 20% or less of the substrate was processed by the enzyme when the reactions were quenched. In dose-response assays showing a reduction in SIRT2 activity by increasing amounts of ligand, the data was fit with standard sigmoidal dose-response curves as we previously described. We report absolute IC50 values from the curves which reflect ligand concentrations that reduce the activity of the enzyme by 50% compared to control (no ligand) samples. Assays measuring the effects of ligand on SIRT1 deacetylase and SIRT6 demyristoylase activities were performed similarly, as previously described.

SIRT2 [4] = molecular target: T1, SIRT2; assay: SIRT2 de-dodecanoylase activity assay (MALDI-MS, dodecanoyl-H4K16 peptide); type: biochemical; details: 0.5 μM dodecanoyl-H4K16, 1 mM NAD+
Method: as §2

SIRT2 [5] = molecular target: T1, SIRT2; assay: SIRT2 de-decanoylase activity assay (MALDI-MS, decanoyl-H4K16 peptide); type: biochemical; details: 0.2 μM decanoyl-H4K16, 1 mM NAD+
Method: as §2

A549 cells = assay: Cell viability MTT assay; type: cell-based, human; details: 72 hours treatment, concentrations shown in Fig 4F and 4G
Method: 5,000 A549 cells were seeded in a 96-well plate in full DMEM. The total volume in each well was 150 μl, and the DMSO concentration was 0.7%. After this treatment period, 10 μl of MTT reagent was added to each well, then the cells were cultured for 4 hour before adding 100 μl of crystal dissolving solution for another 16 hour incubation (Cayman Chemical, catalog #10009365). The absorbance in each well was measured at 570 nm and was used to determine the cell viability by comparing the absorbance of drug treated cells to control (DMSO treated) cells.

SIRT1 = molecular target: T2, SIRT1 (Homo sapiens, UniProt Q96EB6); assay: SIRT1 deacetylase activity assay; type: biochemical; details: 1 μM acetyl-H4K16
T2 sequence (Q96EB6 1-747): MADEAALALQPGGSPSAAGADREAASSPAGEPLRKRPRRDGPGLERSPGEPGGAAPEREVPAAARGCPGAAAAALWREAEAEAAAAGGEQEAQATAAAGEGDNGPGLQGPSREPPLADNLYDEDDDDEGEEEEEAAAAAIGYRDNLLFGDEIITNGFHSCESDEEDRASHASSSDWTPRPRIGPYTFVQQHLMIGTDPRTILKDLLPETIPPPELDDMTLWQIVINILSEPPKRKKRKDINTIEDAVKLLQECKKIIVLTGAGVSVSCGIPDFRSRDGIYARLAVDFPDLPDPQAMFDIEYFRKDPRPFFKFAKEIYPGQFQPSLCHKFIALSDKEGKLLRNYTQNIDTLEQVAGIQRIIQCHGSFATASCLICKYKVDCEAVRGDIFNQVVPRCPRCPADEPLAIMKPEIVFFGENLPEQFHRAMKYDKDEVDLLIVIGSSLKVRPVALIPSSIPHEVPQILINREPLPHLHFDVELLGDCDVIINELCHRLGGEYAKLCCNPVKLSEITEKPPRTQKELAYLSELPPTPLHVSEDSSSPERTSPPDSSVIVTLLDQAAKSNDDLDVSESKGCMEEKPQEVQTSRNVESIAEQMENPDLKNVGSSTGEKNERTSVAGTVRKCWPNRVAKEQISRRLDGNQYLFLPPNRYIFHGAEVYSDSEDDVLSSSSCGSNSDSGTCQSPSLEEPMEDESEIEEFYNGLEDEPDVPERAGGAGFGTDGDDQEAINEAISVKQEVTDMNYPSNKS
Method: as §2

SIRT6 = SIRT6 (Homo sapiens, UniProt Q8N6T7); assay: SIRT6 demyristoylase activity assay; type: biochemical; details: 16 μM myristoyl-H4K16, dose-response
Method: as §2

[6] = system: acetylated alpha-tubulin in A549 SIRT2-KO cells; assay: Immunofluorescence staining of acetylated alpha-tubulin in A549 SIRT2-KO cells; type: cell-based, human; details: 100 μM, 6 hours
[7] = molecular target: T3, human SIRT2 catalytic domain (6xHis-SUMO-SIRT2) (Homo sapiens, UniProt Q8IXJ6); assay: biochemical
T3 sequence (Q8IXJ6 34-356): T1 sequence (Q8IXJ6 34-356)

SIRT2 [8] = molecular target: T1, SIRT2; assay: SIRT2 demyristoylase activity assay (MALDI-MS, myristoyl-H4K16 peptide); type: biochemical
Method: as §2

SIRT2 [9] = molecular target: T1, SIRT2; details: read-out: Deacetylase IC50; previously published; cited from earlier work
[10] = molecular target: SIRT2—decanoyl peptide complex; parameters: method as in PMID 32941003; details: cited from earlier work
SIRT2 [11] = molecular target: T1, SIRT2; details: read-out: IC50 for SIRT2 demyristoylase activity; cited from earlier work
SIRT2 [12] = molecular target: T1, SIRT2; details: read-out: Kd for SIRT2 alone; cited from earlier work
[13] = molecular target: SIRT2—decanoyl-peptide complex (Homo sapiens, UniProt Q8IXJ6); assay: 1-aminoanthracene binding competition assay, SIRT2—decanoyl-peptide complex
Method: (§3) Competition assays where 1-aminoanthracene was displaced from SIRT2 by 2, 4, 5, and 6 were performed as previously reported where we described its displacement from SIRT2 by 3. The assays were also cuvette-based and performed at 23°C in PBS with 1 mM DTT, and the final DMSO concentration was 0.6%. Briefly, the fluorescence intensity of 100 nM 1-aminoanthracene was measured in the presence of 4 μM SIRT2 and increasing amounts of ligand using excitation/emission wavelengths of 390 nm/520 nm. As previously described, displacement of 1-aminoanthracene from SIRT2 by a competitor results in a reduction of its fluorescence.
as §1

SIRT2 [14] = molecular target: T1, SIRT2; assay: 1-aminoanthracene binding competition assay, SIRT2 alone
Method: as §3
We determined and report absolute IC50 values from the curves which reflect ligand concentrations that reduce the fluorescence by 50% compared to control (no ligand) samples.

SIRT2 [15] = molecular target: T1, SIRT2; assay: Intact protein MALDI-MS for covalent adduct on SIRT2; details: 100 μM ligand, 10 μM SIRT2, 37°C, 30 minutes
Method: (A) MALDI-MS spectra of 10 μM SIRT2 after incubation in PBS with 1% DMSO at 37°C for 30 minutes. (B) MALDI-MS spectra of 10 μM SIRT2 after incubation with 100 μM of 2 in PBS with 1% DMSO at 37°C for 30 minutes. The predicted monoisotopic mass for this SIRT2 protein was 36552 Da, and the predicted average mass was 36576 Da; thus, the main peaks represented +1 ions in the isotopic cluster. […] The intact protein spectra were acquired with a Bruker microflex instrument in linear, positive ion mode using sinapinic acid as the matrix. Sinapinic acid was dissolved in 50% acetonitrile/50% water with 0.1% trifluoroacetic acid, which was also used to dilute protein prior to spotting on the MALDI plate. (TIFF)

Sequence of SIRT6 (Q8N6T7 whole entry): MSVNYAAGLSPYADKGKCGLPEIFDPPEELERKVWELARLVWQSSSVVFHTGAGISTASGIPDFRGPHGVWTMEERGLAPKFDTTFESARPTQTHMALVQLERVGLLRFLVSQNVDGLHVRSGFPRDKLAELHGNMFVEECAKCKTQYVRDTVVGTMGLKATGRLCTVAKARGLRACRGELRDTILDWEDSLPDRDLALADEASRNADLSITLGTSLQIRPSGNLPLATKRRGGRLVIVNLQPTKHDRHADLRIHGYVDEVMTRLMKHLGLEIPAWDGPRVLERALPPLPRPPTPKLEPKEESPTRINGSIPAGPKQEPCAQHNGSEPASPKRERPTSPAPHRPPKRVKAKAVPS

## O=c1/c(=C\c2cc(Br)cc(I)c2O)sc2nc3ccccc3n12 [compound 1]
[1]
  level of acetylated alpha-tubulin (immunofluorescence): significantly increased; also recorded: enhanced fluorescence
SIRT2 [2]; 50 nM Cy3 peptide, 2.5 μM SIRT2, 23°C, read-out: IC50 for displacement of Cy3-myristoyl-H4K16 peptide from SIRT2
  IC50: 16 µM
SIRT2 [2]; calculated from IC50 of Cy3-myristoyl-H4K16 peptide competition assay
  Kd: 5 µM
SIRT2 [3]
  IC50: 7 µM
SIRT2 [4]
  IC50: 39 µM
SIRT2 [5]
  IC50: 8 µM
A549 cells
  viability / toxicity in A549 cells (MTT): did not cause toxicity; also recorded: no effect
SIRT1
  IC50: 32 µM
SIRT6
  effect on the demyristoylase activity of SIRT6: no effect
[6]
  level of acetylated alpha-tubulin (immunofluorescence): no effect
[7]
  IC50: 6.92 µM
SIRT2 [8]
  IC50: 37 µM
SIRT2 [8]; 50 μM compound
  effect on the demyristoylase activity of SIRT2: considerably most effective

## CC(C)c1cccc(C(C)C)c1O [compound 3, 2-6-diisopropylphenol]
SIRT2 [9]
  IC50: 140 µM
[10]
  Kd: 7 µM
SIRT2 [11]
  IC50: 195 µM
SIRT2 [12]
  Kd: 25 µM

## Oc1ccc(Br)cc1I [compound 2, 4-bromo-2-iodophenol]
SIRT2 [3]
  IC50: 9 µM
[13]
  Kd: 3 µM
[13]; SIRT2-decanoyl peptide complex, 100 nM 1-aminoanthracene, 4 μM SIRT2, 10 μM decanoyl-H4K16 peptide
  IC50: 7 µM
[13]; stronger for the complex
  affinity for SIRT2—decanoyl-peptide complex compared to SIRT2 alone: 23 fold
SIRT2 [14]; SIRT2 only, 100 nM 1-aminoanthracene, 4 μM SIRT2
  IC50: 75 µM
SIRT2 [14]; read-out: SIRT2 Kd
  Kd: 68 µM
SIRT2 [15]
  covalent reaction with SIRT2 (intact protein mass spectrometry): does not irreversibly attach to SIRT2 or form any type of covalent adduct; also recorded: does not covalently react with SIRT2
SIRT2 [8]; 0.5 μM myristoyl-H4K16, 1 mM NAD+, 37°C, absolute IC50, "no effect" = 200 μM compound did not significantly affect SIRT2 activity
  Demyristoylase IC50: no effect
